Tests used:
[1] = target: T1, HRP (Armoracia rusticana, UniProt P00433); test: A2E degradation by HRP/H2O2, absorbance kinetics at 340 nm; type: biochemical
T1 sequence (P00433 31-338): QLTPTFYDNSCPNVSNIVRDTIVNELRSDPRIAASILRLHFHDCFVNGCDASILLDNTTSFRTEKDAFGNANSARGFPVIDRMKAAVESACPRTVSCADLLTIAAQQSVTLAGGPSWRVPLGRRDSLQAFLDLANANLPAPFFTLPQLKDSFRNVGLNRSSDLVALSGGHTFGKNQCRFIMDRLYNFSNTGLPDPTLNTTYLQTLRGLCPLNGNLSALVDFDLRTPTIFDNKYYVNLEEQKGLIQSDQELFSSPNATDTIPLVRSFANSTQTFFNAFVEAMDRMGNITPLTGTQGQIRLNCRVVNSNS
From the text: Horseradish peroxidase (HRP) is reported to cleave the bis-retinoid A2E. Thus, the ability of SapB to protect A2E from oxidative transformations by HRP was investigated.
In classic peroxidases, it is believed that reaction with hydrogen peroxide gives rise to two oxidizing equivalents (i.e. a porphyrin radical-cation and an Fe(IV)-oxo (ferryl) species) due to exposure of the prosthetic heme group to the bulk solution. […] Having established the presence of two different binding sites on SapB (one for A2E and one for CoQ10), the ability of SapB to protect A2E in the presence of CoQ10 was tested.
(§1) Conventional ultraviolet visible spectroscopy was performed on a Varian Cary 50 Bio spectrophotometer from Agilent Technologies. The stock solutions of various reagents were prepared as follow: HRP in DI water, A2E in DMSO, SapB in 50 mM phosphate buffer, pH 5.5, CoQ10 in THF (tetrahydrofurane) and 3% H2O2 solution diluted in DI water from an initial stock at 30%. The 340 nm kinetic experiments were monitored every 5 minutes for a total of 400 min following the sequential addition of all reagents as indicated in FIG. 4. The HRP solution of FIG. 5 was prepared in 20 mM phosphate buffer, 1% tween, pH 5.5, 25° C. All concentrations given in the figure caption are final concentrations following mixing of the reagents. The spectrophotometric data were further analyzed with OriginLab software version 8.

[2] = target: T2, arylsulfatase A (ASA) (Homo sapiens, UniProt P15289); conditions: at a set time-point; cited from earlier work
T2 sequence (P15289 19-507): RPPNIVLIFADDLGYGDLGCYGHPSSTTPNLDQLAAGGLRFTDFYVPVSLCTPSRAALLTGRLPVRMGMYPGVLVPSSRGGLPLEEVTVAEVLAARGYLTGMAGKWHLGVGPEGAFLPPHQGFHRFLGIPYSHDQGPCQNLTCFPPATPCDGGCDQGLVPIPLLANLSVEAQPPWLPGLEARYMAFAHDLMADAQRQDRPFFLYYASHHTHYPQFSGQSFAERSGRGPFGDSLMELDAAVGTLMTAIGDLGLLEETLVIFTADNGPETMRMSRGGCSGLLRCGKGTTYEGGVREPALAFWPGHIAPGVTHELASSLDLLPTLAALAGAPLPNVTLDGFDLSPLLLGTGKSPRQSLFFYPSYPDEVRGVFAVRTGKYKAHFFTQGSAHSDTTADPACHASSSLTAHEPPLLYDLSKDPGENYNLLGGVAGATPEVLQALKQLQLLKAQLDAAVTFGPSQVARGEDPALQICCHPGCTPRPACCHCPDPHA

[3] = target: T3, SapB (Homo sapiens, UniProt P07602); test: Fluorescence quenching titration of SapB with ligand (double logarithmic Stern-Volmer analysis); type: binding
T3 construct: made in house; host or cells: E. coli
T3 sequence (P07602 195-273 limits assumed): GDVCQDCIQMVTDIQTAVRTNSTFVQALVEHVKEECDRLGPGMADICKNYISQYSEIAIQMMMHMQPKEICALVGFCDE
Protocol: A2E and SapB were prepared and purified according to literature reports. To determine the A2E/protein binding stoichiometry, a fluorescence titration was carried out by incrementally adding small amounts of A2E to a solution of SapB (FIG. 2). […] A double logarithmic plot of
Fluorescence quenching measurements were performed on a Varian Cary Eclipse fluorimeter equipped with a QNW Peltier temperature controller. The experiments were conducted at 25.00±0.01° C. in 50 mM phosphate buffer, pH 5.50 or 7.40 using 278 nm excitation wavelength for sapB emission spectra at 325 nm (FIG. 2) or 444 nm excitation for A2E emission at 602 nm (FIG. 3) with excitation and emission monochromators bandwidth of 5 nm each. The fluorescence quenching data were analyzed using OriginLab software version 8.
The interaction of SapB (prepared as described above) with a variety of ligands was followed by monitoring the quenching of the fluorescence intensities of the protein's tyrosine residues upon binding (FIG. 12 Panels a-f).
For each ligand tested 40 μM SapB in 50 mM phosphate buffer at pH 5.5 was titrated with ligand and quenching was monitored at the fluorescence maxima at 330 nm. […] All of the fluorescence data were analyzed by a double logarithmic Stern-Volmer plot, shown for all ligands, using the emission maxima to determine binding affinity, presented in Table 3, and using the following equation
Materials and Methods—Saposin B (SapB) was prepared and purified as described above. Briefly, SapB solutions in this study were prepared in 50 mM phosphate buffer, pH 5.5. […] Ligand solutions were prepared in 100% dimethylformamide (DMF) to a concentration of 2 mM, with the exception of hydoxychloroquine (HCQ), which was prepared in 50 mM phosphate buffer, pH 5.5. […] 4.2. Fluorescence Spectroscopy. Fluorescence quenching measurements were performed on a Varian Cary Eclipse fluorimeter equipped with a QNW Peltier temperature controller. The binding experiments were conducted at 25.00±0.01° C. in 50 mM phosphate buffer, pH 5.5, using 278 nm excitation wavelength for SapB emission spectra at 330 nm (FIG. 1a-f) with excitation and emission monochromators bandwidth of 5 nm each. Temperature sensitive binding experiments were performed between 20.00±0.01 and 40.00±0.01° C. using 278 nm excitation wavelength for SapB emission spectra at 331 nm, with excitation and emission monochromators bandwidth of 5 nm each. The fluorescence quenching data were analyzed using OriginLab software version 8.

[4] = target: T1, HRP; test: Formation of verdoheme (P-670) from HRP Compound III, absorbance at 670 nm; type: biochemical; conditions: 12 μM A2E, alone or pre-complexed with SapB; 10 μM HRP, 100 μM H2O2
Protocol: Here, and in light of the kinetic results of FIG. 4, we followed the absorbance change at 670 nm to test the hypothesis of whether A2E may be a suitable substrate for the HRP/H2O2 system.
The experiments were then repeated in the presence of A2E and SapB to examine their effect on P-670 formation.
as §1

CC(C=CC1=C(C)CCCC1(C)C)=CC=CC(C)=Cc1cc(C=CC=C(C)C=CC2=C(C)CCCC2(C)C)cc[n+]1CCO [A2E, N-retinylidene-N-retinylethanolamine]
absorbance change at 340 nm, A2E pre-complexed with SapB ([1]; 2:1 SapB:A2E ratio, + HRP + H2O2): very similar to that of a control mixture of HRP and H2O2
absorbance, sequences (SapB+A2E)complex+CoQ10+HRP+H2O2 or (SapB+CoQ10)complex+A2E+HRP+H2O2 ([1]; SapB and CoQ10 present): absorbance values similar to the sequence (SapB+A2E)complex+HRP+H2O2
damage to A2E, sequence (SapB+HRP)complex+A2E+H2O2 ([1]; SapB pre-complexed with HRP): partial damage
absorbance of A2E at 340 nm after H2O2 added to A2E containing HRP ([1]; free A2E): decrease in the absorbance value
interference with ASA specific activity [2]: does not interfere
binding stoichiometry from double logarithmic plot [3]: ~1 A2E per SapB dimer
LogKA of binding by SapB ([3]; 40 μM SapB, 50 mM phosphate buffer pH 5.5, average of three runs): 4.680
binding affinity (KA), A2E to SapB ([3]; double logarithmic plot, 50 mM phosphate buffer pH 5.5, 25° C.): ~4e+06 M⁻¹
Kd ([3]; read-out: KD, SapB binds A2E): 25 µM
binding stoichiometry, discontinuity of fluorescence quenching at 308 nm ([3]; titration of SapB with A2E): ~0.5 A2E/protein
amount of verdoheme (P-670) formation [4]: significant reduction

From patent US10813981B2, “Saposin B binds the lipofuscin bisretinoid A2E and prevents its enzymatic and photo degradation” (Syracuse University, priority 2017, dated 2020)
